Calls of active or inactive are those of the source. The calls are words filed in the database; no cut-off is given here.
Assays:
[1] = Apparent volume of distribution in 12 hr starved C57 mouse at 5 mg/kg, iv measured for 0.083 to 24 hrs post-dose by LC-MS-MS analysis; type: ADME, organism-based; conditions: in vivo, time 0.083-24 hrs, read-out: Vz
[2] = Cmax in 12 hr starved C57 mouse at 30 mg/kg, po measured for 0.083 to 24 hrs post-dose by LC-MS-MS analysis; type: ADME, organism-based; parameters: dose 30 mg/kg, time 0.083-24 hrs, route po; conditions: in vivo
[3] = Apparent clearance during terminal phase in 12 hr starved C57 mouse at 5 mg/kg, iv measured for 0.083 to 24 hrs post-dose by LC-MS-MS analysis; type: ADME, organism-based; conditions: in vivo, time 0.083-24 hrs
[4] = AUC (0 to infinity) in 12 hr starved C57 mouse at 30 mg/kg, po measured for 0.083 to 24 hrs post-dose by LC-MS-MS analysis; type: ADME, organism-based; parameters: time upper 24 hrs, dose 30 mg/kg, time lower 0.083 hrs, route po; conditions: in vivo
[5] = MRT (0 to infinity) in 12 hr starved C57 mouse at 30 mg/kg, po measured for 0.083 to 24 hrs post-dose by LC-MS-MS analysis; type: ADME, organism-based; conditions: in vivo, time 0.083-24 hrs
Mus musculus [6] = test: Antiinflammatory activity against DSS-induced C57BL/6 mouse model of acute ulcerative colitis assessed as inhibition ratio of IL-6 protein expression at 1 mg/kg, IG via gavage measured after 7 days by ELISA relative to control; type: functional; parameters: scale not given: the % may be the effect or the level left; conditions: time 7 day
Mus musculus [7] = test: Antiinflammatory activity against DSS-induced C57BL/6 mouse model of acute ulcerative colitis assessed as inhibition ratio of IL-6 protein expression at 10 mg/kg, IG via gavage measured after 7 days by ELISA relative to control; type: functional; parameters: scale not given: the % may be the effect or the level left; conditions: time 7 day
Mus musculus [8] = test: Antiinflammatory activity against DSS-induced C57BL/6 mouse model of acute ulcerative colitis assessed as inhibition ratio of IL-23 protein expression at 1 mg/kg, IG via gavage measured after 7 days by ELISA relative to control; type: functional; parameters: scale not given: the % may be the effect or the level left; conditions: time 7 day
Mus musculus [9] = test: Antiinflammatory activity against DSS-induced C57BL/6 mouse model of acute ulcerative colitis assessed as inhibition ratio of IL-23 protein expression at 3 mg/kg, IG via gavage measured after 7 days by ELISA relative to control; type: functional; parameters: scale not given: the % may be the effect or the level left; conditions: time 7 day
Mus musculus [10] = test: Antiinflammatory activity against DSS-induced C57BL/6 mouse model of acute ulcerative colitis assessed as inhibition ratio of IL-1beta mRNA expression in colon tissue at 3 mg/kg, IG via gavage measured after 7 days by RT-qPCR analysis relative to control; type: functional; parameters: scale not given: the % may be the effect or the level left; conditions: time 7 day
Mus musculus [11] = test: Antiinflammatory activity against DSS-induced C57BL/6 mouse model of acute ulcerative colitis assessed as inhibition ratio of IL-1beta mRNA expression in colon tissue at 10 mg/kg, IG via gavage measured after 7 days by RT-qPCR analysis relative to control; type: functional; parameters: scale not given: the % may be the effect or the level left; conditions: time 7 day
Mus musculus [12] = test: Anti-ulcerative colitis activity in IL-10-/- C57BL/6 mouse model of ulcerative colitis assessed as body weight recovery ratio at 1 mg/kg, IG via gavage for 8 weeks and measured everyday relative to control; type: functional
Mus musculus [13] = test: Anti-ulcerative colitis activity in IL-10-/- C57BL/6 mouse model of ulcerative colitis assessed as histopathological score recovery ratio at 10 mg/kg, IG via gavage for 8 weeks relative to control; type: functional
Mus musculus [14] = test: Antiinflammatory activity against IL-10-/- C57BL/6 mouse model of ulcerative colitis assessed as inhibition ratio of TNF-alpha protein expression at 1 mg/kg, IG via gavage and measured after 8 weeks by ELISA relative to control; type: functional; parameters: scale not given: the % may be the effect or the level left
Mus musculus [15] = test: Antiinflammatory activity against IL-10-/- C57BL/6 mouse model of ulcerative colitis assessed as inhibition ratio of IL-1beta protein expression at 1 mg/kg, IG via gavage and measured after 8 weeks by ELISA relative to control; type: functional; parameters: scale not given: the % may be the effect or the level left
Mus musculus [16] = test: Antiinflammatory activity against IL-10-/- C57BL/6 mouse model of ulcerative colitis assessed as inhibition ratio of TNF-alpha mRNA expression in colon tissue at 1 mg/kg, IG via gavage and measured after 8 weeks by RT-qPCR analysis relative to control; type: functional; parameters: scale not given: the % may be the effect or the level left
Mus musculus [17] = test: Antiinflammatory activity against IL-10-/- C57BL/6 mouse model of ulcerative colitis assessed as inhibition ratio of TNF-alpha mRNA expression in colon tissue at 3 mg/kg, IG via gavage and measured after 8 weeks by RT-qPCR analysis relative to control; type: functional; parameters: scale not given: the % may be the effect or the level left
Mus musculus [18] = test: Antiinflammatory activity against IL-10-/- C57BL/6 mouse model of ulcerative colitis assessed as inhibition ratio of IL-1beta mRNA expression in colon tissue at 10 mg/kg, IG via gavage and measured after 8 weeks by RT-qPCR analysis relative to control; type: functional; parameters: scale not given: the % may be the effect or the level left
Mus musculus [19] = test: Antiinflammatory activity against IL-10-/- C57BL/6 mouse model of ulcerative colitis assessed as inhibition ratio of IL-6 mRNA expression in colon tissue at 3 mg/kg, IG via gavage and measured after 8 weeks by RT-qPCR analysis relative to control; type: functional; parameters: scale not given: the % may be the effect or the level left
RAW264.7 [20] = test: Inhibition of MKK3-p38-elF4E signaling pathway in mouse RAW264.7 cells assessed as inhibition of LPS-induced p38 phosphorylation treated for 1.5 hrs followed by LPS treatment for 1 hr by Western blot analysis; type: cell-based; conditions: dose 3.125-12.5 µmol/L, time 2.5 hrs, DDE = dose-dependent effect
Mus musculus [21] = test: Inhibition of MKK3-p38 MAPK-elF4E signaling pathway in C57BL/6 mouse model of acute ulcerative colitis assessed as decrease in DSS-induced MKK3 phosphorylation in colon tissue administered intragastrically via gavage measured after 7 days by Western blot analysis; conditions: dose 1-50 mg/kg, time 7.0 day, DDE = dose-dependent effect
Mus musculus [22] = test: Inhibition of MKK3-p38 MAPK-elF4E signaling pathway in C57BL/6 mouse model of acute ulcerative colitis assessed as decrease in DSS-induced p38 MAPK phosphorylation in colon tissue administered intragastrically via gavage measured after 7 days by Western blot analysis; conditions: dose 1-50 mg/kg, time 7.0 day, DDE = dose-dependent effect
Mus musculus [23] = test: Inhibition of MKK3-p38 MAPK-elF4E signaling pathway in C57BL/6 mouse model of acute ulcerative colitis assessed as decrease in DSS-induced Mnk1 phosphorylation in colon tissue administered intragastrically via gavage measured after 7 days by Western blot analysis; conditions: dose 1-50 mg/kg, time 7.0 day, DDE = dose-dependent effect
Mus musculus [24] = test: Anti-ulcerative colitis activity against DSS-induced ulcerative colitis C57BL/6 mouse model assessed as reduction in DAI score at 1 mg/kg, IG via gavage administered for 7 days and measured everyday (reference value: 4.0); type: functional; conditions: time 7 day
Mus musculus [25] = test: Antiinflammatory activity against IL-10-/- C57BL/6 mouse model of acute ulcerative colitis assessed as decrease in serum IL-1beta levels administered intragastrically via gavage measured after 8 weeks by ELISA; type: functional, organism-based; conditions: dose 3-10 mg/kg, route ig, DDE = dose-dependent effect
Mus musculus [26] = test: Antiinflammatory activity against IL-10-/- C57BL/6 mouse model of acute ulcerative colitis assessed as decrease in serum IL-6 levels administered intragastrically via gavage measured after 8 weeks by ELISA; type: functional, organism-based; conditions: dose 3-10 mg/kg, route ig, DDE = dose-dependent effect
Mus musculus [27] = test: Antiinflammatory activity against IL-10-/- C57BL/6 mouse model of acute ulcerative colitis assessed as decrease in serum IL-23 levels administered intragastrically via gavage measured after 8 weeks by ELISA; type: functional, organism-based; conditions: dose 3-10 mg/kg, route ig, DDE = dose-dependent effect
RAW264.7 [28] = test: Inhibition of TAK1-MKK3 protein-protein interaction in LPS-treated mouse RAW264.7 cells assessed as reduction in TAK1 levels at 3.13 to 12.5 umol/L incubated for 30 mins by immunoprecipitation method; type: cell-based; conditions: dose 3.13-12.5 µmol/L

COc1ccc([C@H]2CC(=O)c3cc(OC)cc(OC)c32)cc1
Vd [1]: 7.76 L/kg
Cmax [2]: 2290 ng/mL
CLz/F [3]: 9.67 mL/min/kg
AUC [4]: 16991 ng·h/mL
MRT inf [5]: 12.5 h
Activity (Mus musculus [6]): 40.4%
Activity (Mus musculus [7]): 56.1%
Activity (Mus musculus [8]): 46.2%
Activity (Mus musculus [9]): 51.6%
Activity (Mus musculus [10]): 87.2%
Activity (Mus musculus [11]): 95.6%
Activity (Mus musculus [12]): 13.6%
Activity (Mus musculus [13]): 56.7%
Activity (Mus musculus [14]): 40.2%
Activity (Mus musculus [15]): 40.1%
Activity (Mus musculus [16]): 24.7%
Activity (Mus musculus [17]): 69.5%
Activity (Mus musculus [18]): 43.8%
Activity (Mus musculus [19]): 37.1%
inhibition (RAW264.7 [20]): Dde
inhibition (Mus musculus [21]): Dde
inhibition (Mus musculus [22]): Dde
inhibition (Mus musculus [23]): Dde
Activity (Mus musculus [24]): 3.2
Activity (Mus musculus [25]): Dde
Activity (Mus musculus [26]): Dde
Activity (Mus musculus [27]): Dde
inhibition (RAW264.7 [28]): Active

— ChEMBL document CHEMBL5154881, “Discovery of First-in-Class TAK1-MKK3 Protein-Protein Interaction (PPI) Inhibitor (R)-STU104 for the Treatment of Ulcerative Colitis through Modulating TNF-α Production” (J Med Chem, 2022)
